Experimental data: patent US20250367185A1, “TRANSLESION SYNTHESIS POLYMERASE INHIBITORS AND USES THEREOF” (THE UNIVERSITY OF VERMONT AND STATE AGRICULTURAL COLLEGE, priority 2022, published 2025)

What was measured:
Type in all cases: cell-based
[1] = tested on: A549-ACE2+ cells infected with SARS-COV-2; assay: Microsatellite instability (MSI) in SARS-COV-2 infected cells
[2] = tested on: DDR, TLS, and DNA repair genes in A549-ACE2+ cells
[3] = tested on: gH2AX in SARS-CoV-2 infected A549-ACE2+ cells; assay: gH2AX expression in SARS-CoV-2 infected cells; conditions: SARS-CoV-2 infected A549-ACE2+ cells at 48 hours
Description: Next, whether other genome instability markers were also repressed by the Compound 1 treatment in SARS-COV-2 infected cells was examined. Compound 1 treatment of the A549-ACE2+ cells suppressed transcript expression of all the DDR, TLS, and DNA repair genes. Likewise, the enhanced expression of gH2AX in SARS-CoV-2 infected A549-ACE2+ cells at 48 hours was suppressed by up to 40-fold post-Compound 1 treatment.

[4] = tested on: SARS-CoV-2 infected A549-ACE2+ cells
[5] = tested on: SARS-COV-2; assay: SARS-COV-2 proliferation in cell lines, relative mRNA content
[6] = tested on: p62 and LC3 in SARS-COV-2 infected cells
[7] = tested on: Dengue virus; assay: Dengue virus viral load in infected A549-ACE2+ cells; conditions: 10 μM, compared to non-treated cells, data at 24 hours, 48 hours and 5 days post-infection
Description: FIG. 2 is a graph showing the relative reduction of mRNA in untreated A549-ACE2+ cells (“Not Treated”) and in cells post-treatment with Compound 1 (“JH Treated”) at 24 and 48 hours post-infection with Dengue virus.
FIG. 3 is a graph showing the relative reduction of mRNA in untreated A549-ACE2+ cells and cells post treatment with Compound 1 (“JH Treated”) or untreated (“Not Treated”) 5 days post-infection with Dengue virus.
Compound 1 (10 μM) was administered to A549-ACE2+ cells infected with Dengue virus and the resulting viral loads were measured (FIGS. 2 and 3). Compared to non-treated cells, those treated with Compound 1 suppressed Dengue virus by 77-fold. Data is shown 24 hours, 48 hours, and 5 days post-infection (PI).

CC(C)CC(=O)c1c(Nc2ccc(C(=O)O)cc2Cl)[nH]c2c(Cl)ccc([N+](=O)[O-])c2c1=O [Compound 1, 3-chloro-4-((8-chloro-3-(3-methylbutanoyl)-5-nitro-4-oxo-1,4-dihydroquinolin-2-yl)amino)benzoic acid]
SARS-COV-2-dependent MSI [1]: suppress
transcript expression of all the DDR, TLS, and DNA repair genes [2]: suppressed
suppression of enhanced gH2AX expression [3]: up to 40 fold
rescue of telomere instability [4]: did not rescue
proliferation of SARS-COV-2, relative mRNA content in cells ([5]; A549-ACE2+ cells): directly suppress
proliferation of SARS-COV-2, relative mRNA content in cells ([5]; Calu-3 cells): directly suppress
proliferation of SARS-COV-2, relative mRNA content in cells ([5]; Vero cells): directly suppress
expression of LC3 [6]: significantly increases
expression of p62 [6]: significantly increases
suppression of Dengue virus (viral load) [7]: 77 fold
